Each block holds one molecule with its values, some of them ahead of it. Activity calls are given as the source filed them.
How the values were obtained:
[1] = biological target: Dual specificity tyrosine-phosphorylation-regulated kinase 1A (Rattus norvegicus, UniProt Q63470); format: biochemical, Homo sapiens
[2] = biological target: Protein disulfide-isomerase (Homo sapiens, UniProt P07237); assay: inhibition of PDI-driven insulin aggregation – biochemical, turbidity, absorbance, cherry-picked samples, dose response (AID 602350); format: functional
[3] = system: HEK293; assay: membrane integrity loss in HEK cells – cell-based, fluorescence, cytotoxicity control for IDE activator project, dose response (AID 588440); format: functional; settings: Homo sapiens;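 further: cytotoxicity by LDH release measuring loss of membrane integrity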
[4] = biological target: T1, Insulin-degrading enzyme (Homo sapiens, UniProt P14735); assay: recombinant IDE activation, cell-free – biochemical, fluorescence polarization, counter-screen for IDE activator project, dose response (AID 588681)
T1 sequence (P14735 whole entry): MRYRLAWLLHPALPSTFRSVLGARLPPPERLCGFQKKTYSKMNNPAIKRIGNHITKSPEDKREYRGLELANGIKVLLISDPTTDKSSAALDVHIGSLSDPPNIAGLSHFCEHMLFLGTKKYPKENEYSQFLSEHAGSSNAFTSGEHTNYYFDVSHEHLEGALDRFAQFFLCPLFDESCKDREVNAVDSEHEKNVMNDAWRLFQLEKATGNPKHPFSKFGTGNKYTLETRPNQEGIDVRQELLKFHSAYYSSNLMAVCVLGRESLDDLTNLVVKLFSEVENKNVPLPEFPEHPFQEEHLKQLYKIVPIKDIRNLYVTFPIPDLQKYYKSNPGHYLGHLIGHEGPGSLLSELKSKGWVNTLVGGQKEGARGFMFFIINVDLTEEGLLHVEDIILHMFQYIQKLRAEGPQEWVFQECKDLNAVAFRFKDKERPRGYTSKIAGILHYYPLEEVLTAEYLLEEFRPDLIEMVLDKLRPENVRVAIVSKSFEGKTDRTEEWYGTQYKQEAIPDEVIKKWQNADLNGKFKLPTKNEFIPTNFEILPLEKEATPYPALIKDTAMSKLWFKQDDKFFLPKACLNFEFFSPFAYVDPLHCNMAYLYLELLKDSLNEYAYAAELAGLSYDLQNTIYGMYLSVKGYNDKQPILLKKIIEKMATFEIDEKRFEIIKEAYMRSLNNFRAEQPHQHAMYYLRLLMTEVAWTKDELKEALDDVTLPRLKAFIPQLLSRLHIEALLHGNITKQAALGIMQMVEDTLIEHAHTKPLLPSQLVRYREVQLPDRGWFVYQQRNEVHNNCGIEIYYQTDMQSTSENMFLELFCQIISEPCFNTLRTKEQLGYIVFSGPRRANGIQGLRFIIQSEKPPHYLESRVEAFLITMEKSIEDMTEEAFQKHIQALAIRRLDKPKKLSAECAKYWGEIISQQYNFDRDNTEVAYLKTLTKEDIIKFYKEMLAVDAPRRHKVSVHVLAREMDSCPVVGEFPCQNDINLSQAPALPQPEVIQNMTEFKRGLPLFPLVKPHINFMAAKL

[5] = biological target: T1, Insulin-degrading enzyme; assay: cellular IDE activation of Abeta substrate cleavage – fluorescence polarization, HEK cells, dose response (AID 588439); format: functional, cell-based
[6] = system: HEK293; assay: optical interference in Abeta FP readout, dose response, artefact control for IDE activator project, biochemical, fluorescence polarization (AID 588442); format: functional, cell-based; settings: Homo sapiens
[7] = biological target: T2, Sentrin-specific protease 8 (Homo sapiens, UniProt Q96LD8); assay: inhibition of human SENP8 cleavage activity – biochemical, luminescence, SAR follow-up (AID 504501); format: functional
T2 sequence (Q96LD8 whole entry): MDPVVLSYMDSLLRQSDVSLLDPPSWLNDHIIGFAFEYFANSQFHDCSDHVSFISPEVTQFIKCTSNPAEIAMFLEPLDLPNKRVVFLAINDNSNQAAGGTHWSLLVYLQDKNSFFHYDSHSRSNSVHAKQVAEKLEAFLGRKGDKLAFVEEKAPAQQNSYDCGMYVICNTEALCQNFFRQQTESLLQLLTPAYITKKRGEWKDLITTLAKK

[8] = biological target: T3, Sentrin-specific protease 7 (Homo sapiens, UniProt Q9BQF6); assay: inhibition of human SENP7 cleavage activity – biochemical, luminescence, SAR follow-up (AID 504497); format: functional
T3 sequence (Q9BQF6 whole entry): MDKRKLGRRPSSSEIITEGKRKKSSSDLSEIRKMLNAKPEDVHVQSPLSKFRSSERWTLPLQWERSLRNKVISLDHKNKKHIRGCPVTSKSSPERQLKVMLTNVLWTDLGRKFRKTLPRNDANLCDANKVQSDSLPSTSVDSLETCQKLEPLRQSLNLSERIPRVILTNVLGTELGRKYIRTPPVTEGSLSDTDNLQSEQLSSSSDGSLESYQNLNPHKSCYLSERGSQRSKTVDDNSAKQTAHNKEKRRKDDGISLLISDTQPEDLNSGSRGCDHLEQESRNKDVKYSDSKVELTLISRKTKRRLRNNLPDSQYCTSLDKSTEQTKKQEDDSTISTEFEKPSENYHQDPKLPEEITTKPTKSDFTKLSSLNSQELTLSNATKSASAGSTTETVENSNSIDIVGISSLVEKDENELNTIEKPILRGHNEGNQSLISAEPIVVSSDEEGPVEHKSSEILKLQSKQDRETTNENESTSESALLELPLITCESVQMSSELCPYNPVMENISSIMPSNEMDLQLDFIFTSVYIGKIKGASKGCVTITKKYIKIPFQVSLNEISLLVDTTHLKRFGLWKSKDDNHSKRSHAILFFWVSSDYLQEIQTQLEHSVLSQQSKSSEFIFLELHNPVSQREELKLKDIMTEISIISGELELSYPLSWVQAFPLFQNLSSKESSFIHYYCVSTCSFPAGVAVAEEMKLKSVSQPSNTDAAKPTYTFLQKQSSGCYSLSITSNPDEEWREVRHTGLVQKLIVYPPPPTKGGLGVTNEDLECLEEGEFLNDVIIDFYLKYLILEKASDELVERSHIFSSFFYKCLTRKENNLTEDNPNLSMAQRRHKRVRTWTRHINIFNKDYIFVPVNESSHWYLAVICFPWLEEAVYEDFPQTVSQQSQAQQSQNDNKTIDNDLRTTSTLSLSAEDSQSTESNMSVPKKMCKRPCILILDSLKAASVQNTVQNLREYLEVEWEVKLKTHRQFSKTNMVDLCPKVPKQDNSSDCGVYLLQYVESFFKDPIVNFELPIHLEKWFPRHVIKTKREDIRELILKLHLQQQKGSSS

[9] = biological target: T4, Caspase-3 (Homo sapiens, UniProt P42574); assay: SAR Analysis of small molecule inhibitors of Sentrin-specific proteases (SENPs) using a Caspase-3 Selectivity assay. [Related pubchem assays (depositor defined):AID2540, AID2599, AID434973, AID489001]; format: functional
T4 sequence (P42574 whole entry): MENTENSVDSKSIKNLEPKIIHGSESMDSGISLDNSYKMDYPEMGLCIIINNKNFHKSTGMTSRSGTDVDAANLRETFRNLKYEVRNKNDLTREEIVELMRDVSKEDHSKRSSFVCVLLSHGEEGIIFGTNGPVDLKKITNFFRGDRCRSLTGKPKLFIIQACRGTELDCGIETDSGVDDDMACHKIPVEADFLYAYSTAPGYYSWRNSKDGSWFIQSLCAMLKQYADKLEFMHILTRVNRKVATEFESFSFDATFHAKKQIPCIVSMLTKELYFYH

[10] = biological target: T5, Sentrin-specific protease 6 (Homo sapiens, UniProt Q9GZR1); assay: SAR Analysis of small molecule inhibitors of Sentrin-specific protease 6 (SENP6) using a Luminescent assay. [Related pubchem assays (depositor defined):AID2582, AID2599]; format: functional
T5 sequence (Q9GZR1 whole entry): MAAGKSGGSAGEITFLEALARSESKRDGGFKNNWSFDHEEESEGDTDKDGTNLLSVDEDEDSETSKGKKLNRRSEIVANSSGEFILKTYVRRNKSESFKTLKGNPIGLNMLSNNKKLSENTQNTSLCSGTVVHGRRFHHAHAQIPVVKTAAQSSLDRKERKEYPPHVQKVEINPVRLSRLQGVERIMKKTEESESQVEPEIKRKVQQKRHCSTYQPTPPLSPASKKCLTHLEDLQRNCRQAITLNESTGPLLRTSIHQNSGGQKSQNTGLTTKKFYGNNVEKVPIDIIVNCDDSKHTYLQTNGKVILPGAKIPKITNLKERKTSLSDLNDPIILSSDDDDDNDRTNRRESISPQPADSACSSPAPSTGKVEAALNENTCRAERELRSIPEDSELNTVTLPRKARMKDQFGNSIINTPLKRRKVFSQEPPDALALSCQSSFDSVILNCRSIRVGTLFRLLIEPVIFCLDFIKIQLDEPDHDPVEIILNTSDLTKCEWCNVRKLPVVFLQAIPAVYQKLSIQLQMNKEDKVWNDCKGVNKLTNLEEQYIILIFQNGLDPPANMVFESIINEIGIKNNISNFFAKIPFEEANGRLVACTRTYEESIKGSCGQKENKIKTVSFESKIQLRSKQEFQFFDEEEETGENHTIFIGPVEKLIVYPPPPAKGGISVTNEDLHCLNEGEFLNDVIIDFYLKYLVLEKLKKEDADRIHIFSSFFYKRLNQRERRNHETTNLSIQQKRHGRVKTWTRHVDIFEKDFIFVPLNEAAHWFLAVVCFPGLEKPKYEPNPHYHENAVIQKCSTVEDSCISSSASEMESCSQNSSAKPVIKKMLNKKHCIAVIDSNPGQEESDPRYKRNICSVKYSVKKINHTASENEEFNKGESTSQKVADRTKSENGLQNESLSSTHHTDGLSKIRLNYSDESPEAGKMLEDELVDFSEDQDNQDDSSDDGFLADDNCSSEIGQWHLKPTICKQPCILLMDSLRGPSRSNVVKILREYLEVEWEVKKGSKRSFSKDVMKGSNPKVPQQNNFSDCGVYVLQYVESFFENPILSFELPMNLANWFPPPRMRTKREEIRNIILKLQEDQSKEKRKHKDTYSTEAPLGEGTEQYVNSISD

[11] = biological target: Multidrug resistance protein CDR1 (Candida albicans, UniProt P43071); assay: inhibition of Nile Red efflux via Candida CDR1 – S. cerevisiae AD1-8u, singleplex, Cherry Pick1 hits, dose response (AID 588606); format: functional
[12] = rise of 2N DNA cells, HeLa – IC50, dose response (AID 1117349); format: functional, cell-based
[13] = biological target: Serine/threonine-protein kinase D2 (Homo sapiens, UniProt Q9BZL6); format: functional;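 further: measured against PRKD2 as one member of a kinome-wide kinase profiling panel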
[14] = biological target: Serine/threonine-protein kinase TAO1 (Homo sapiens, UniProt Q7L7X3); format: functional
[15] = rise of 4N DNA cells, HeLa – IC50, dose response (AID 1117351); format: functional, cell-based
[16] = Luminescence Cell-Based Dose Retest to Confirm Inhibitors of Cancer Stem Cells. [Related pubchem assays (depositor defined):AID2717, AID2721]; format: functional; settings: Homo sapiens

Protein disulfide-isomerase, sequence (P07237 whole entry): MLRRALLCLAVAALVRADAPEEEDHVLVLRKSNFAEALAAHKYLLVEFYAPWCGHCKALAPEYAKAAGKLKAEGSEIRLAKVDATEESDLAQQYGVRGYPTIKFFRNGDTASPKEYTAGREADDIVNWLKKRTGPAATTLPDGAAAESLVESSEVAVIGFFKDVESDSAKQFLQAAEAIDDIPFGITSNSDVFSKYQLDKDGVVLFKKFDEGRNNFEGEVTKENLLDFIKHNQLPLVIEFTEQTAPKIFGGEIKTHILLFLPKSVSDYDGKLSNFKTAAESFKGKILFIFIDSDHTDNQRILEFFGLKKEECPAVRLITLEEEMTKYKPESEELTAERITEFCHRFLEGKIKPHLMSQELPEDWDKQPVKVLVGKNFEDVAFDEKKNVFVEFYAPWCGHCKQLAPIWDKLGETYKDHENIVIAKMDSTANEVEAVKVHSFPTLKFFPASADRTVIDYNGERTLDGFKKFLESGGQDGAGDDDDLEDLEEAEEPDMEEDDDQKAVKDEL
Multidrug resistance protein CDR1, sequence (P43071 whole entry, looked up): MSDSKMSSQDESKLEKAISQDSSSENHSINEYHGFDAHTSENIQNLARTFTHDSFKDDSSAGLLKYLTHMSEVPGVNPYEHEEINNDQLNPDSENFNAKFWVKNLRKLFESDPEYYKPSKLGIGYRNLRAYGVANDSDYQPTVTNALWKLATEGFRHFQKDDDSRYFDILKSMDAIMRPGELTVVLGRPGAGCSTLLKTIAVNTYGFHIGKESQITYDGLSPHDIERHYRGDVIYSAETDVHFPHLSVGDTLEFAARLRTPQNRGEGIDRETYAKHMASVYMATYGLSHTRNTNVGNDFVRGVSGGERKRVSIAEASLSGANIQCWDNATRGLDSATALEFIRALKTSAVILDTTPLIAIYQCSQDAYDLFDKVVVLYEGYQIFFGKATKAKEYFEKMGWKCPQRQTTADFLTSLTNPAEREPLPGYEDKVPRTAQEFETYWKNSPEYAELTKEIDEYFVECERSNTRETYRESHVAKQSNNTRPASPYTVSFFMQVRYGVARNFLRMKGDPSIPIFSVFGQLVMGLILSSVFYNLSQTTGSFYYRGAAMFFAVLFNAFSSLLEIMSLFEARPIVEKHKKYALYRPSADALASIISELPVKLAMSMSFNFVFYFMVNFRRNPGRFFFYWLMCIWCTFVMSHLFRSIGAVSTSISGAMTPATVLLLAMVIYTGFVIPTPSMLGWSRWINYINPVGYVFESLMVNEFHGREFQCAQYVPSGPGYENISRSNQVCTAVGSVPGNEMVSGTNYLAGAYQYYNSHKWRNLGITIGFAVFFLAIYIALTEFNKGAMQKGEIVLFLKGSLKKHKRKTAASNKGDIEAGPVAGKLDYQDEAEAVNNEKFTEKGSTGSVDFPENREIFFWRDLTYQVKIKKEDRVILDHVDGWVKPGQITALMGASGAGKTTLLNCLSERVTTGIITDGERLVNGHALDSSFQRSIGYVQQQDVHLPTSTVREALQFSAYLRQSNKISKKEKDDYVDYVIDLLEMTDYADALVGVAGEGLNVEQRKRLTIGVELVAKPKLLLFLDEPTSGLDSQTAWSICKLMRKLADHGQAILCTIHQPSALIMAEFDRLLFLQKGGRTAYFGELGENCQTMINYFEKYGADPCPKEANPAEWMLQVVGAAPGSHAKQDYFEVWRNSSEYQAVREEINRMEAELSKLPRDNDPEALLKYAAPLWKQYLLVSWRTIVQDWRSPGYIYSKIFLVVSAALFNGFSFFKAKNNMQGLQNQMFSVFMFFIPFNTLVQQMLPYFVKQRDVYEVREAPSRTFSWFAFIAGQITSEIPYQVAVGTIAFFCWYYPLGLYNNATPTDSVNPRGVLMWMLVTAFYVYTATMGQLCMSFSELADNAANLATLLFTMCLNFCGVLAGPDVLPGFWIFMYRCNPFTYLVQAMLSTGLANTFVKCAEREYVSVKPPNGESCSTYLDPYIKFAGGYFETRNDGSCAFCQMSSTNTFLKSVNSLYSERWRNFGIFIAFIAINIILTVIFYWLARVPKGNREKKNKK
Serine/threonine-protein kinase TAO1, sequence (Q7L7X3 whole entry): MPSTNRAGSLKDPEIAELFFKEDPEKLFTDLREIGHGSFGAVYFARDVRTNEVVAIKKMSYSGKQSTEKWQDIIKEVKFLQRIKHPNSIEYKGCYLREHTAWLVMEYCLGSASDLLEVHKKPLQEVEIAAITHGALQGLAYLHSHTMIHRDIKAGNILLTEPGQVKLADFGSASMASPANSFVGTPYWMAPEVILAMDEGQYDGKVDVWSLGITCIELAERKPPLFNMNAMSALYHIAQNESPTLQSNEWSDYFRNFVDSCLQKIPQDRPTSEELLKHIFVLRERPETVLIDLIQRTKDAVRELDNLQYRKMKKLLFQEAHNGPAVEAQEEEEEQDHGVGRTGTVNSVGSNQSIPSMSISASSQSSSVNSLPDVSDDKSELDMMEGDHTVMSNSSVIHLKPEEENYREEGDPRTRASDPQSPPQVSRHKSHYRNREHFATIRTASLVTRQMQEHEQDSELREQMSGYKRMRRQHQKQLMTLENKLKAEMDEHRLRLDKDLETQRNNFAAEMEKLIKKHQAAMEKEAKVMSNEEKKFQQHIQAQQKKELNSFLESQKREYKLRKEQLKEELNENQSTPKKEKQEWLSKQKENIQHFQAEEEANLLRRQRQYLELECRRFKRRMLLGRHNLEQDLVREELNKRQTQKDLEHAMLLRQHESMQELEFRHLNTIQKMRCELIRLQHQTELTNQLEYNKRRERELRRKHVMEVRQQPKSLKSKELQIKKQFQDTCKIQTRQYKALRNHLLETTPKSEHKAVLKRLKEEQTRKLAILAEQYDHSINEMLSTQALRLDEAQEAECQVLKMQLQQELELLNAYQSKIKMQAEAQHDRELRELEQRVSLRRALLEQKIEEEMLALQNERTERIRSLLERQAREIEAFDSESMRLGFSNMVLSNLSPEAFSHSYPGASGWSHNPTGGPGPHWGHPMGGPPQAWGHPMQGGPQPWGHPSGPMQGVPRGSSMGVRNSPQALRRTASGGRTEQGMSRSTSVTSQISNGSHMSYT
Serine/threonine-protein kinase D2, sequence (Q9BZL6 whole entry): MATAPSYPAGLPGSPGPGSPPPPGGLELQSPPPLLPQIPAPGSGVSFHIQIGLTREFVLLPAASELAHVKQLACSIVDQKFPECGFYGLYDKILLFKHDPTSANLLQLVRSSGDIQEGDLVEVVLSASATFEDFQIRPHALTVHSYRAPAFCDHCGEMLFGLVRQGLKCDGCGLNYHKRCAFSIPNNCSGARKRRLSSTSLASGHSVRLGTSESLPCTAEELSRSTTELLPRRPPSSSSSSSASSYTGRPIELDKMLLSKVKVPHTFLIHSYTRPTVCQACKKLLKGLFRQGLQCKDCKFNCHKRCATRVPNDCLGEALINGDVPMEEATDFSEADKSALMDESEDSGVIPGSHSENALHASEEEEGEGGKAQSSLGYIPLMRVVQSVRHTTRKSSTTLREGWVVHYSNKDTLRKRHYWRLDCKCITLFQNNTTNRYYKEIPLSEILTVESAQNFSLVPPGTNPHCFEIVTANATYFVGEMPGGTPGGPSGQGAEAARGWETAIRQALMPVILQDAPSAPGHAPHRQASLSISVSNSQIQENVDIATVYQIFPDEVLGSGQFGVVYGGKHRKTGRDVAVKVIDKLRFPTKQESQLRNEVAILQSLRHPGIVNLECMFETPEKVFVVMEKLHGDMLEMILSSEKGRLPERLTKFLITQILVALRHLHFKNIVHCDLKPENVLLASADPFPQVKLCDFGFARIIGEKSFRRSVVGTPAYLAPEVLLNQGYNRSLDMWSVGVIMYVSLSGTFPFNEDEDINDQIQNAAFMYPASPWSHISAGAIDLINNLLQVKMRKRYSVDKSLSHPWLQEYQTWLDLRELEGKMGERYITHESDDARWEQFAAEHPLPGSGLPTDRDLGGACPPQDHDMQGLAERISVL

AC50 [1]: 6.66 µM (active)
AC50 [2]: 3.51 µM (active)
Structure (SMILES): C[C@@H]1O[C@@H](OC[C@@H]2O[C@H](Oc3c(-c4ccc(O)cc4)oc4cc(O)cc(O)c4c3=O)[C@@H](O)[C@H](O)[C@H]2O)[C@H](O)[C@H](O)[C@H]1O

Structure (SMILES): CCc1ccc(-c2nc(C[S+]([O-])CC(=O)O)c(C)o2)cc1 (centres undefined)
IC50 [3]: > 89.2 µM (inactive)
EC50 [4]: > 54.7 µM (inactive)
EC50 [5]: > 54.7 µM (inactive)
EC50 [6]: > 55.9 µM (inactive)

IC50 [8]: > 99 µM (inactive)
IC50 [9]: > 99 µM (inactive)
IC50 [10]: > 99 µM (inactive)
Structure (SMILES): Cc1ccc(/C=C/c2nc(-c3ccc(NS(=O)(=O)c4cccs4)cc3)no2)cc1
IC50 [7]: > 99 µM (inactive)

Structure (SMILES): CCOc1ccc(NC(=O)CSc2nnc(Cc3cccn3C)n2-c2ccc(F)cc2)cc1
EC50 [11]: 0.013 µM (active)

Structure (SMILES): Clc1ccc(Nc2nnc(Cc3ccncc3)c3ccccc23)cc1 [VATALANIB]
IC50 [12]: > 10 µM (inactive)
Ki [13]: > 10 µM (inactive)
Ki [14]: > 7.94 µM (inactive)
IC50 [15]: > 10 µM (inactive)

IC50 [8]: 34.3 µM (active)
IC50 [9]: > 99 µM (inactive)
IC50 [10]: > 99 µM (inactive)
Structure (SMILES): Cc1cc(NS(=O)(=O)c2ccc(F)c(F)c2)cc2sc(NC(=O)c3ccccc3)nc12
IC50 [7]: > 99 µM (inactive)

Structure (SMILES): Cc1cccc(N2CCN(C(S)=Nc3ccc4nc(N5CCN(C)CC5)cc(C)c4c3)CC2C)c1 (centres undefined)
IC50 [3]: 8.41 µM (active)
EC50 [4]: > 54.7 µM (inactive)
EC50 [5]: > 54.7 µM (inactive)
EC50 [6]: > 54.7 µM (inactive)
AC50 [16]: 7.58 µM (active)

Reference: ChEMBL document CHEMBL1201862, “PubChem BioAssay data set” (2004)
